{"source": "patent US10064862B2", "about": "“Antiviral axin stabilizer” (priority 2014, dated 2018)", "molecules": {"B1": {"name": "Wnt3a: activator of Wnt/β-catenin signaling, given as rhWnt3a or Wnt3a_CM (protein, UniProt P56704 19-352, looked up)", "Protein Wnt-3a": "SYPIWWSLAVGPQYSSLGSQPILCASIPGLVPKQLRFCRNYVEIMPSVAEGIKIGIQECQHQFRGRRWNCTTVHDSLAIFGPVLDKATRESAFVHAIASAGVAFAVTRSCAEGTAAICGCSSRHQGSPGKGWKWGGCSEDIEFGGMVSREFADARENRPDARSAMNRHNNEAGRQAIASHMHLKCKCHGLSGSCEVKTCWWSQPDFRAIGDFLKDKYDSASEMVVEKHRESRGWVETLRPRYTYFKVPTERDLVYYEASPNFCEPNPETGSFGTRDRTCNVSSHGIDGCDLLCCGRGHNARAERRREKCRCVFHWCCYVSCQECTRVYDVHTCK"}}, "key": {"herpes simplex virus": {"tested_on": "herpes simplex virus", "settings": "previously reported; cited from earlier work"}, "Axin1 [1]": {"tested_on": "Axin1", "assay_type": "in vivo, mouse", "settings": "oral administration of RN-1 for 24 hours, 50 mg/kg"}, "[2]": {"tested_on": "IFN and IFN-stimulated gene (ISG) expression", "test": "IFNα1 and MX1 mRNA by Real-time PCR in primary mouse alveolar epithelial cells", "assay_type": "cell-based"}, "[3]": {"tested_on": "nonO/p54(nrb), SFPQ, and hnRNP M", "assay_type": "cell-based, human", "settings": "A549 cells, 20 μM RN-1 24 hours pretreatment, MOI=2"}, "Axin1 [4]": {"tested_on": "Axin1", "test": "Axin1 stabilization in A549 cells (immunostaining, Western blot)", "assay_type": "cell-based, human"}, "A549 cells": {"tested_on": "A549 cells", "settings": "all the concentrations tested (30-80,000 nM), MTT assay"}, "[5]": {"tested_on": "H1N1 influenza A/PR/8/34 virus", "test": "organism not typed", "assay_type": "cell-based"}, "[6]": {"tested_on": "H1N1 influenza A/PR/8/34 virus", "test": "Lethal influenza virus challenge in mice (lung virus titer, survival)", "assay_type": "in vivo, mouse", "settings": "for survival rate after lethal virus challenge: mice, 1,000 pfu, RN-1 50 mg/kg orally daily, -1 to 2 or 4 dpi", "protocol": "Mice were challenged intranasally with a lethal dose (1,000 pfu) of H1N1 influenza A/PR/8/34 virus. […] Control animals received vehicle alone. […] (C) Virus titer in the homogenized infected lungs at 2 dpi was measured by TCID50 assay in MDCK cells and normalized to total protein amount. […] Data shown are means±s.e.m. and tested for statistical significance by Student's t-test. (D) Survival rate. […] Mantel-Cox χ2 test on Kaplan-Meier survival data was used to compare the survival rate between groups.\nMale C57BL/6N mice (6-8 week old) were challenged intranasally with a lethal dose (1,000 pfu) of influenza virus A/PR/8/34 H1N1 under anesthesia. […] Control animals were given vehicle alone in the same formulation. All animals were observed daily for body weight loss and clinical signs of disease such as ruffled fur, inactivity and difficulty in breathing until 21 days post infection.\nMDCK cells in 96-well plates were infected with serial dilutions (10^−1 to 10^−7) of virus samples in serum-free complete EMEM containing 1 μg/ml TPCK-treated trypsin for 1 hour. The cells were re-fed with the same medium for 4 days. TCID50 values (median tissue culture infective dose) were calculated by the method of Reed and Muench.\nThe results were analyzed by one-way ANOVA followed with posthoc Tukey's test for multiple comparisons of control and treatment groups, or Student's t-test using GraphPad Prism (version 6). Survival rates between groups were analyzed by Mantel-Cox χ2 test on Kaplan-Meier probability estimates using GraphPad Prism. All results were reported as mean±s.e.m."}, "[7]": {"tested_on": "H1N1 influenza A/PR/8/34 virus", "assay_type": "cell-based"}, "[8]": {"tested_on": "Axin1-stimulated IFN response", "test": "Axin1-stimulated IFN and ISG mRNA in OE-Axin1 HEK293 cells pretreated with inhibitors", "assay_type": "cell-based, human", "settings": "OE-Axin1, MOI=2"}, "ISRE activity": {"tested_on": "ISRE activity", "test": "ISRE_Luc dual-luciferase assay in OE-Axin1 HEK293 cells pretreated with inhibitors", "assay_type": "cell-based, human", "settings": "10 μM inhibitor, OE-Axin1, MOI=2 for 8 hours"}, "[9]": {"tested_on": "H1N1 influenza A/PR/8/34 virus", "test": "Viral gene mRNA in OE-Axin1 HEK293 cells pretreated with inhibitors", "assay_type": "cell-based"}, "[10]": {"tested_on": "H1N1 influenza A/PR/8/34 virus", "assay_type": "cell-based", "settings": "E10 cells, 250 ng/ml rhWnt3a or 50% Wnt3a_CM 24 hours pretreatment, MOI=2 for 18 hours"}, "[11]": {"tested_on": "influenza virus A/Puerto Rico/8/1934 H1N1", "assay_type": "in vivo, mouse", "settings": "mice, 250 pfu, 50 μl 10× Wnt3a_CM intranasally 4 hours before and 2 days post infection, lungs day 5"}, "[12]": {"settings": "primary mouse alveolar epithelial cells during virus infection, 20 μM RN-1, 12 hpi"}, "[13]": {"settings": "10 μM inhibitor 6 hours pretreatment"}}, "note": "“Also recorded” adds a separate entry of the source.", "data": [{"molecule": "Oc1nc(-c2ccc(C(F)(F)F)cc2)nc2c1CSCC2", "note": "[RN-1, 3,5,7,8-Tetrahydro-2-[4-(trifluoromethyl)phenyl]-4H-thiopyrano[4,3-d]pyrimidin-4-one]", "values": [{"measurement": "herpes simplex virus replication", "setting": "herpes simplex virus", "result": "inhibit herpes simplex virus replication"}, {"measurement": "Axin1 protein in the mouse lung", "setting": "Axin1 [1]", "result": "successfully stabilized Axin1"}, {"measurement": "mRNA expression of IFNα1", "setting": "[2]; [12]", "result": "increased the mRNA expression"}, {"measurement": "mRNA expression of the ISG MX1", "setting": "[2]; [12]", "result": "increased the mRNA expression"}, {"measurement": "baseline IFN gene expression", "setting": "[2]; uninfected cells", "result": "had no effects"}, {"measurement": "degradation of nonO/p54(nrb), SFPQ and hnRNP M", "setting": "[3]", "result": "stimulated the degradation of all three proteins"}, {"measurement": "Axin1 protein during influenza virus infection", "setting": "Axin1 [4]", "result": "Axin1 was not degraded"}, {"measurement": "cell viability", "setting": "A549 cells", "result": "did not affect cell viability"}, {"measurement": "maximum inhibition of influenza virus replication", "setting": "[5]", "result": "over 99%"}, {"measurement": "virus replication (virus titer in supernatants)", "setting": "[5]", "result": "significantly attenuated"}, {"measurement": "EC50", "setting": "[5]; A549, 24 h, read-out: EC50 of attenuation of influenza virus replication (virus titers in culture media)", "result": 419, "unit": "nM"}, {"measurement": "survival rate after lethal virus challenge", "setting": "[6]", "result": "dramatically improved"}, {"measurement": "survival rate after lethal virus challenge", "setting": "[6]; listed as XAV939", "result": "protected animals from lethal influenza virus challenge"}, {"measurement": "influenza virus replication in vivo (virus titer in infected lungs at 2 dpi)", "setting": "[6]; mouse, in vivo, po", "result": "significantly attenuated"}, {"measurement": "virus replication (virus titer)", "setting": "[7]", "result": "notably inhibited; also recorded: significantly inhibited virus replication"}]}, {"molecule": "COc1cc2c(cc1OC)CN(C(=O)/C=C/c1c(-c3ccccc3)n(C)c3ncccc13)CC2", "note": "[SIS3]", "values": [{"measurement": "Axin1-stimulated IFN mRNA expression (IFNβ1, IFNα1, IFNα7, IFNλ1)", "setting": "[8]; [13]", "result": "the same inhibitory effect on Axin1-elevated anti-viral machinery except IFNβ1 synthesis (FIG. 7A) and MX1 expression (FIG. 7E); also recorded: only inhibited Axin1-induced expression of IFNα but not IFNβ1"}, {"measurement": "Axin1-stimulated ISGs expression (OAS1, MX1, IP10)", "setting": "[8]; [13]", "result": "the same inhibitory effect on Axin1-elevated anti-viral machinery except IFNβ1 synthesis (FIG. 7A) and MX1 expression (FIG. 7E)"}, {"measurement": "Axin1-regulated Type I and Type III IFN synthesis", "setting": "[8]; 10 μM inhibitor", "result": "the same inhibitory effect in both scenarios"}, {"measurement": "Axin1-stimulated ISRE activity", "setting": "ISRE activity", "result": "the same inhibitory effect"}, {"measurement": "effect on Axin1-mediated attenuation of influenza virus replication (viral gene mRNA)", "setting": "[9]", "result": "relived Axin1-mediated attenuation of influenza virus replication"}]}, {"molecule": "B1", "values": [{"measurement": "virus replication in vitro (viral gene mRNA)", "setting": "[10]", "result": "dramatically promotes virus replication"}, {"measurement": "virus replication in vivo (viral gene mRNA in lungs)", "setting": "[11]", "result": "dramatically promotes virus replication"}]}]}
